Test results as given in PMC3531252 (EJNMMI Research, 2012).

Key:
GlyT1 [1] = test: PET measurements using a cynomolgus monkey; format: in vivo
Experimental: PET measurements were performed for 123 min immediately after intravenous (i.v.) injection of radioligand at baseline and after pretreatment with SSR504734. SSR504734 was administered over 15 min, starting 30 min before the radioligand injection. PET measurements were performed on two separate days at a 6-week interval. One baseline PET measurement and one PET measurement after pretreatment with 0.1 mg/kg of SSR504734 were performed on the first day. One baseline PET measurement and two PET measurements after pretreatment with 0.5 and 1.5 mg/kg of SSR504734 were performed on the second day.
Regions of interest (ROI) for the thalamus, cerebellum, caudate, putamen, frontal cortex, temporal cortex, anterior cingulate cortex, pons, white matter, and the whole-brain contour were delineated on PET/MRI co-registered brain images for each monkey. […] PET data were analyzed using several parameters such as percent injected dose (%ID) and percent standard uptake value (%SUV), where

GlyT1 [2] = test: PET measurements using rhesus monkeys, VT by two-tissue compartment model; format: in vivo, rhesus monkey; design: VT (baseline) WB / VT (baseline) THA / VT (baseline) CB / VT (baseline) CAU / VT (baseline) FC / VT (baseline) ACC / VT (baseline) TC: unit not given here; details: for VT (baseline) ACC / VT (baseline) CAU / VT (baseline) CB / VT (baseline) FC / VT (baseline) Pons / VT (baseline) PUT / VT (baseline) TC / VT (baseline) THA / VT (baseline) WB: 2TC
Experimental: PET measurements were performed using a high-resolution research tomograph (CTI/Siemens Molecular Imaging, Knoxville, TN, USA) with an in-plane resolution less than 1.5 mm FWHM in the center of the FOV [30]. PET data were acquired by list mode. The data were reconstructed with a series of frames (5 × 1 min, 5 × 3 min, 5 × 6 min, and 13 × 10 min) using the Ordinary Poisson-3D-Ordered Subset Expectation Maximization (OP03D-OSEM) algorithm with 10 iterations and 16 subsets including modeling of the points spread function. Image reconstruction was performed on a quad-core PC running a fast reconstruction algorithm.
Anesthesia was induced by intramuscular injection of ketamine hydrochloride (60 mg) and maintained by the administration of a mixture of sevoflurane, O2, and medical air after endotracheal intubation. The head was immobilized with a fixation device. Body temperature was maintained by Bair Hugger Model 505 (Arizant Healthcare, MN, USA) and monitored by an esophageal thermometer. ECG, heart rate, respiratory rate, and oxygen saturation were continuously monitored throughout the experiments. Blood pressure was monitored every 5 min.
(§1) PET measurements were performed for 123 min immediately after i.v. injection of radioligand at baseline and after pretreatment with SSR504734. SSR504734 was administered over 15 min, starting 30 min before the radioligand injection. PET measurements were performed on two separate days with two monkeys. One baseline PET measurement and one PET measurement after pretreatment with 1.5 mg/kg of SSR504734 were performed on one monkey. One baseline PET measurement and one PET measurement after pretreatment with 4.5 mg/kg were performed on the other monkey.
During each PET measurement, arterial blood was collected continuously for 3 min using an automated blood-sampling system at a speed of 3.0 mL/min (Allog AB, Molndal, Sweden). Blood samples (1.0 to 2.5 mL) were drawn at 4, 15, 30, 60, 90, and 120 min after the radioligand injection for blood and plasma radioactivity and metabolite correction.
Regions of interest (ROI) for the thalamus, cerebellum, caudate, putamen, frontal cortex, temporal cortex, anterior cingulate cortex, pons, white matter, and the whole-brain contour were delineated on PET/MRI co-registered brain images for each monkey. Co-registrations and ROI delineations were performed using PMOD 3.0 (Pixel-Wise Modeling Computer Software, PMOD Group, Zurich, Switzerland). PET data were analyzed using several parameters such as percent injected dose (%ID) and percent standard uptake value (%SUV), where
%ID=total radioactivity in the whole brain (MBq)/injected radioactivity (MBq)×100
%SUV=radioactivity (MBq/cc)/injected radioactivity (MBq)×body weight g×100.
In the PET measurements using rhesus monkeys, the total distribution volume (VT) was calculated by a two-tissue compartment model as well.

GlyT1 [3] = test: GlyT1 occupancy and VND by Lassen plot, PET in rhesus monkeys; format: in vivo, rhesus monkey; details: for % of VND in VT ACC: anterior cingulate cortex; for % of VND in VT FC: frontal cortex; for % of VND in VT PUT: putamen; for % of VND in VT TC: temporal cortex
Experimental: as §1
GlyT1 occupancy was estimated by applying Lassen plot approach, which can determine nondisplaceable distribution volume (VND) and occupancy using VT values at baseline and after pretreatment. Seven regions (the pons, cerebellum, putamen, frontal cortex, caudate, anterior cingulate cortex, and temporal cortex) were used for the plot.

[4] = metabolite analysis of plasma by radio-HPLC during PET; format: in vivo, cynomolgus monkey
Experimental: During each PET measurement, venous blood samples were taken from a femoral vein for the measurement of [^11 C]
From the obtained blood samples, plasma was obtained after centrifugation at 2,000 × g for 2 to 4 min and was mixed with 1.4 times the volume of acetonitrile. The supernatant acetonitrile-plasma mixture obtained after centrifugation at 2,000 × g for 2 to 4 min was injected into the radio-HPLC system. HPLC analysis was performed on a Waters μ-Bondapak-C18 column (300 × 7.8 mm, 10 μm) by gradient elution using (a) ammonium formate (100 mM) and (b) acetonitrile at 6.0 mL/min.

[5] = baseline + blocking (1.5 mg/kg)
[6] = baseline + blocking (4.5 mg/kg)

## [11CH3]N1CCCCC1[C@@H](NC(=O)c1cccc(C(F)(F)F)c1Cl)c1ccccc1 (stereo partly drawn) [[^11 C]N-methyl-SSR504734, 2-chloro N-[(S)-{(S)-1-[^11 C]methylpiperidin-2-yl} (phenyl)methyl] 3-trifluoromethyl-benzamide]
GlyT1 [1]; baseline
  rank order of regional brain uptake: thalamus > pons > cerebellum ≒ putamen > cortical regions > white matter
GlyT1 [1]; baseline, N = 2
  time of whole brain peak: 24 min
GlyT1 [1]; pretreatment 0.1 to 1.5 mg/kg SSR504734, dose-dependent
  radioactivity level in brain after pretreatment with SSR504734: increased in all regions
GlyT1 [2]; baseline
  rank order of regional brain uptake: thalamus > pons > putamen > frontal cortex≒temporal cortex > cerebellum> > white matter
GlyT1 [2]; pretreatment 1.5 and 4.5 mg/kg SSR504734
  uptake in the brain regions after pretreatment with SSR504734: increase
GlyT1 [2]; rhesus monkey 1, anterior cingulate cortex
  VT (baseline) ACC: 28.6
GlyT1 [2]; rhesus monkey 1, anterior cingulate cortex, after SSR504734 1.5 mg/kg
  VT (Blocking (1.5 mg/kg)) ACC: 22.5
GlyT1 [2]; rhesus monkey 1, anterior cingulate cortex, baseline to blocking with SSR504734 1.5 mg/kg
  % decrease of VT ACC: 21.3%
GlyT1 [2]; rhesus monkey 1, caudate
  VT (baseline) CAU: 26.2
GlyT1 [2]; rhesus monkey 1, caudate, after SSR504734 1.5 mg/kg
  VT (Blocking (1.5 mg/kg)) CAU: 22.0
GlyT1 [2]; rhesus monkey 1, caudate, baseline to blocking with SSR504734 1.5 mg/kg
  % decrease of VT CAU: 16.0%
GlyT1 [2]; rhesus monkey 1, cerebellum
  VT (baseline) CB: 23.7
GlyT1 [2]; rhesus monkey 1, cerebellum, after SSR504734 1.5 mg/kg
  VT (Blocking (1.5 mg/kg)) CB: 20.4
GlyT1 [2]; rhesus monkey 1, cerebellum, baseline to blocking with SSR504734 1.5 mg/kg
  % decrease of VT CB: 13.9%
GlyT1 [2]; rhesus monkey 1, frontal cortex
  VT (baseline) FC: 25.2
GlyT1 [2]; rhesus monkey 1, frontal cortex, after SSR504734 1.5 mg/kg
  VT (Blocking (1.5 mg/kg)) FC: 20.6
GlyT1 [2]; rhesus monkey 1, frontal cortex, baseline to blocking with SSR504734 1.5 mg/kg
  % decrease of VT FC: 18.3%
GlyT1 [2]; rhesus monkey 1, pons
  VT (baseline) Pons: 35.2
GlyT1 [2]; rhesus monkey 1, pons, after SSR504734 1.5 mg/kg
  VT (Blocking (1.5 mg/kg)) Pons: 26.8
GlyT1 [2]; rhesus monkey 1, pons, baseline to blocking with SSR504734 1.5 mg/kg
  % decrease of VT Pons: 23.9%
GlyT1 [2]; rhesus monkey 1, putamen
  VT (baseline) PUT: 26.7
GlyT1 [2]; rhesus monkey 1, putamen, after SSR504734 1.5 mg/kg
  VT (Blocking (1.5 mg/kg)) PUT: 22.8
GlyT1 [2]; rhesus monkey 1, putamen, baseline to blocking with SSR504734 1.5 mg/kg
  % decrease of VT PUT: 14.6%
GlyT1 [2]; rhesus monkey 1, temporal cortex
  VT (baseline) TC: 25.6
GlyT1 [2]; rhesus monkey 1, temporal cortex, after SSR504734 1.5 mg/kg
  VT (Blocking (1.5 mg/kg)) TC: 21.8
GlyT1 [2]; rhesus monkey 1, temporal cortex, baseline to blocking with SSR504734 1.5 mg/kg
  % decrease of VT TC: 14.8%
GlyT1 [2]; rhesus monkey 1, thalamus
  VT (baseline) THA: 31.0
GlyT1 [2]; rhesus monkey 1, thalamus, after SSR504734 1.5 mg/kg
  VT (Blocking (1.5 mg/kg)) THA: 29.6
GlyT1 [2]; rhesus monkey 1, thalamus, baseline to blocking with SSR504734 1.5 mg/kg
  % decrease of VT THA: 4.5%
GlyT1 [2]; rhesus monkey 1, whole brain
  VT (baseline) WB: 23.1
GlyT1 [2]; rhesus monkey 1, whole brain, after SSR504734 1.5 mg/kg
  VT (Blocking (1.5 mg/kg)) WB: 18.6
GlyT1 [2]; rhesus monkey 2, anterior cingulate cortex
  VT (baseline) ACC: 15.5
GlyT1 [2]; rhesus monkey 2, anterior cingulate cortex, after SSR504734 4.5 mg/kg
  VT (Blocking (4.5 mg/kg)) ACC: 9.0
GlyT1 [2]; rhesus monkey 2, anterior cingulate cortex, baseline to blocking with SSR504734 4.5 mg/kg
  % decrease of VT ACC: 41.9%
GlyT1 [2]; rhesus monkey 2, caudate
  VT (baseline) CAU: 17.0
GlyT1 [2]; rhesus monkey 2, caudate, after SSR504734 4.5 mg/kg
  VT (Blocking (4.5 mg/kg)) CAU: 9.2
GlyT1 [2]; rhesus monkey 2, caudate, baseline to blocking with SSR504734 4.5 mg/kg
  % decrease of VT CAU: 45.9%
GlyT1 [2]; rhesus monkey 2, cerebellum
  VT (baseline) CB: 12.8
GlyT1 [2]; rhesus monkey 2, cerebellum, after SSR504734 4.5 mg/kg
  VT (Blocking (4.5 mg/kg)) CB: 9.0
GlyT1 [2]; rhesus monkey 2, cerebellum, baseline to blocking with SSR504734 4.5 mg/kg
  % decrease of VT CB: 29.7%
GlyT1 [2]; rhesus monkey 2, frontal cortex
  VT (baseline) FC: 14.3
GlyT1 [2]; rhesus monkey 2, frontal cortex, after SSR504734 4.5 mg/kg
  VT (Blocking (4.5 mg/kg)) FC: 8.6
GlyT1 [2]; rhesus monkey 2, frontal cortex, baseline to blocking with SSR504734 4.5 mg/kg
  % decrease of VT FC: 39.9%
GlyT1 [2]; rhesus monkey 2, pons
  VT (baseline) Pons: 16.9
GlyT1 [2]; rhesus monkey 2, pons, after SSR504734 4.5 mg/kg
  VT (Blocking (4.5 mg/kg)) Pons: 10.9
GlyT1 [2]; rhesus monkey 2, pons, baseline to blocking with SSR504734 4.5 mg/kg
  % decrease of VT Pons: 35.5%
GlyT1 [2]; rhesus monkey 2, putamen
  VT (baseline) PUT: 15.8
GlyT1 [2]; rhesus monkey 2, putamen, after SSR504734 4.5 mg/kg
  VT (Blocking (4.5 mg/kg)) PUT: 10.1
GlyT1 [2]; rhesus monkey 2, putamen, baseline to blocking with SSR504734 4.5 mg/kg
  % decrease of VT PUT: 36.1%
GlyT1 [2]; rhesus monkey 2, temporal cortex
  VT (baseline) TC: 12.3
GlyT1 [2]; rhesus monkey 2, temporal cortex, after SSR504734 4.5 mg/kg
  VT (Blocking (4.5 mg/kg)) TC: 8.9
GlyT1 [2]; rhesus monkey 2, temporal cortex, baseline to blocking with SSR504734 4.5 mg/kg
  % decrease of VT TC: 27.6%
GlyT1 [2]; rhesus monkey 2, thalamus
  VT (baseline) THA: 15.7
GlyT1 [2]; rhesus monkey 2, thalamus, after SSR504734 4.5 mg/kg
  VT (Blocking (4.5 mg/kg)) THA: 11.9
GlyT1 [2]; rhesus monkey 2, thalamus, baseline to blocking with SSR504734 4.5 mg/kg
  % decrease of VT THA: 24.2%
GlyT1 [2]; rhesus monkey 2, whole brain
  VT (baseline) WB: 12.6
GlyT1 [2]; rhesus monkey 2, whole brain, after SSR504734 4.5 mg/kg
  VT (Blocking (4.5 mg/kg)) WB: 8.5
GlyT1 [2]; rhesus monkey 2, whole brain, baseline to blocking with SSR504734 4.5 mg/kg
  % decrease of VT WB: 32.5%
GlyT1 [3]; baseline + blocking 1.5 mg/kg SSR504734, rhesus monkey 1, one value for all regions
  VND: 16.5
GlyT1 [3]; baseline + blocking 4.5 mg/kg SSR504734, rhesus monkey 2, one value for all regions
  VND: 7.5
GlyT1 [3]; [5]
  % of VND in VT ACC: 59%
  % of VND in VT FC: 52%
  % of VND in VT PUT: 55%
  % of VND in VT TC: 54%
GlyT1 [3]; baseline + blocking (1.5 mg/kg), caudate
  % of VND in VT CAU: 55%
GlyT1 [3]; baseline + blocking (1.5 mg/kg), cerebellum
  % of VND in VT CB: 50%
GlyT1 [3]; baseline + blocking (1.5 mg/kg), pons
  % of VND in VT Pons: 66%
GlyT1 [3]; [6]
  % of VND in VT ACC: 52%
  % of VND in VT FC: 48%
  % of VND in VT PUT: 53%
  % of VND in VT TC: 39%
[4]; radiochromatograms, 4 and 90 min
  metabolites detected in the plasma: more hydrophilic metabolites
[4]; within 90 min after injection
  fraction metabolized in plasma: over 70%
